# Data from article PMC7618719, “Generation of T cells with reduced off-target cross-reactivities by engineering co-signalling receptors” (Nature Biomedical Engineering, 2026).
# System: Lck
# Assay: Lck chemical inhibition assay, CD69 on A-770041-treated c259 TCR-T cells
# Type: cell-based, human
# Conditions: c259 TCR-T cells treated 1 h with A-770041, U87 with NY-ESO-1 peptides, 4 h, CD69 and TNFα
# Experimental: U87 cells (50,000) in 100 μl of DMEM were seeded per well in a 96-well flat-bottom plate and incubated overnight. T cells were treated with the appropriate concentration of A-770041 for 1 h. The DMEM media were discarded and 50,000 A-770041-treated T cells were added to each well in 200 μl of RPMI media. Cells were incubated for 4 h at 37 ^∘C and 5% CO2.
# Cells were stained for 20 min at 4 ^∘C, washed with PBS and analysed using a BD X-20 or a Cytoflex LX flow cytometer (Beckman Couter). Data were analysed using FlowJo v.10, RRID:SCR008520 (BD Biosciences) and GraphPad Prism, RRID:SCR002798 (GraphPad Software).
smiles,measurement,value
COc1cc(-c2nn([C@H]3CC[C@H](N4CCN(C(C)=O)CC4)CC3)c3ncnc(N)c23)ccc1NC(=O)c1cc2ccccc2n1C [A-770041],effect of Lck inhibition on T cell ligand discrimination,increases T cell ligand discrimination
